Activity calls are given as the source filed them. The calls are words filed in the database; no cut-off is given here.
Columns and labels:
[1] = tested on: Fibroblast of cardiac tissue; assay: Reversal of Ang II-induced proliferation in neonatal rat cardiac fibroblasts measured after 48 hrs by MTT assay; type: functional, cell-based
[2] = target: T1, Lysine-specific demethylase 5B (Homo sapiens, UniProt Q9UGL1); assay: Inhibition of KDM5B (unknown origin) at 10 uM incubated for 30 mins by HRTF assay relative to control
[3] = target: T1, Lysine-specific demethylase 5B; assay: Inhibition of KDM5B (unknown origin) incubated for 30 mins by HRTF assay
[4] = target: Lysine-specific demethylase 5A (Homo sapiens, UniProt P29375); assay: Inhibition of KDM5A (unknown origin) incubated for 30 mins by HRTF assay
[5] = target: Lysine-specific demethylase 5C (Homo sapiens, UniProt P41229); assay: Inhibition of KDM5C (unknown origin) incubated for 30 mins by HRTF assay
[6] = Cytotoxicity against neonatal rat cardiac fibroblast assessed as cell survival rate at 10 uM measured after 48 hrs by MTT assay relative to control; type: toxicity, cell-based, Fibroblast of cardiac tissue; conditions: neonatal rat cardiac fibroblasts, read-out: Activity
[7] = Cytotoxicity against neonatal rat Cardiomyocytes assessed as cell survival rate at 10 uM measured after 48 hrs by MTT assay; type: toxicity, cell-based, Cardiac muscle cell; conditions: read-out: Activity
[8] = tested on: Fibroblast of cardiac tissue; assay: Reversal of Ang II-induced increase in collagen I level in neonatal rat cardiac fibroblasts by Western blot analysis; type: functional, cell-based
[9] = tested on: Fibroblast of cardiac tissue; assay: Reversal of Ang II-induced increase in […] level in neonatal rat cardiac fibroblasts by Western blot analysis; type: functional, cell-based
[10] = tested on: Fibroblast of cardiac tissue; assay: Reversal of Ang II-induced increase in alpha-SMA level in neonatal rat cardiac fibroblasts by Western blot analysis; type: functional, cell-based
[11] = tested on: Fibroblast of cardiac tissue; assay: Reversal of Ang II-induced decrease in H3K4me3 level in neonatal rat cardiac fibroblasts by Western blot analysis; type: functional, cell-based
[12] = tested on: Fibroblast of cardiac tissue; assay: Reversal of Ang II-induced decrease in H3K4me3 level in neonatal rat cardiac fibroblasts by immunofluorescence staining assay; type: functional, cell-based
[13] = tested on: Fibroblast of cardiac tissue; assay: Antimigratory activity in neonatal rat cardiac fibroblasts assessed as fold decrease in Ang II-induced migration measured after 48 hrs by scratch test; type: functional
[14] = tested on: Fibroblast of cardiac tissue; assay: Antimigratory activity in neonatal rat cardiac fibroblasts assessed as fold decrease in Ang II-induced migration measured after 48 hrs by transwell test (reference value: 1.8 fold); type: functional
[15] = Clearance in Sprague-Dawley rat at 2 mg/kg, iv measured upto 24 hrs; type: ADME, organism-based; conditions: in vivo
[16] = Clearance in Sprague-Dawley rat at 10 mg/kg, po measured upto 24 hrs; type: ADME, organism-based; conditions: in vivo
[17] = Volume of distribution at steady state in Sprague-Dawley rat at 10 mg/kg, po measured upto 24 hrs; type: ADME, organism-based; conditions: in vivo
[18] = Volume of distribution at steady state in Sprague-Dawley rat at 2 mg/kg, iv measured upto 24 hrs; type: ADME, organism-based; conditions: in vivo, read-out: Vdss
[19] = Half life in Sprague-Dawley rat at 10 mg/kg, po measured upto 24 hrs; type: ADME, organism-based; conditions: in vivo
[20] = Half life in Sprague-Dawley rat at 2 mg/kg, iv measured upto 24 hrs; type: ADME, organism-based; conditions: in vivo
[21] = Tmax in Sprague-Dawley rat at 10 mg/kg, po measured upto 24 hrs; type: ADME, organism-based; conditions: in vivo
[22] = Cmax in Sprague-Dawley rat at 10 mg/kg, po measured upto 24 hrs; type: ADME, organism-based; design: dose 10 mg/kg, time < 24 hrs, route po; conditions: in vivo
[23] = Cmax in Sprague-Dawley rat at 2 mg/kg, iv measured upto 24 hrs; type: ADME, organism-based; design: time < 24 hrs, dose 2 mg/kg, route iv; conditions: in vivo
[24] = AUC in Sprague-Dawley rat at 10 mg/kg, po measured upto 24 hrs; type: ADME, organism-based; design: dose 10 mg/kg, time < 24 hrs, route po; conditions: in vivo
[25] = AUC in Sprague-Dawley rat at 2 mg/kg, iv measured upto 24 hrs; type: ADME, organism-based; design: dose 2 mg/kg, time < 24 hrs, route iv; conditions: in vivo
[26] = Oral bioavailability in Sprague-Dawley rat at 10 mg/kg measured upto 24 hrs; type: ADME, organism-based; conditions: in vivo
[27] = Acute toxicity in C57BL/6 mouse assessed as survival at 2 g/Kg by one-time gavage measured after 2 weeks; conditions: in vivo, po, 2000 mg/kg, 336 h
[28] = Acute toxicity in C57BL/6 mouse assessed as body weight at 2 g/Kg by one-time gavage measured after 2 weeks; conditions: in vivo, po, 2000 mg/kg, 336 h
[29] = Acute toxicity in C57BL/6 mouse assessed as effect on heart at 2 g/Kg by hematoxylin and eosin staining based histopathological analysis; type: tissue-based; conditions: in vivo, 2000 mg/kg
[30] = Acute toxicity in C57BL/6 mouse assessed as effect on spleen at 2 g/Kg by hematoxylin and eosin staining based histopathological analysis; type: tissue-based; conditions: in vivo, 2000 mg/kg
[31] = Acute toxicity in C57BL/6 mouse assessed as effect on liver at 2 g/Kg by hematoxylin and eosin staining based histopathological analysis; type: tissue-based; conditions: in vivo, 2000 mg/kg
[32] = Acute toxicity in C57BL/6 mouse assessed as effect on lung at 2 g/Kg by hematoxylin and eosin staining based histopathological analysis; type: tissue-based; conditions: in vivo, 2000 mg/kg
[33] = Acute toxicity in C57BL/6 mouse assessed as effect on kidney at 2 g/Kg by hematoxylin and eosin staining based histopathological analysis; type: tissue-based; conditions: in vivo, 2000 mg/kg
Mus musculus [34] = assay: Anti-myocardial remodeling function in isoproterenol-induced C57BL/6 mouse model assessed as increase in ejection fraction at 20 mg/kg by one-time gavage for 21 days; type: functional; conditions: time 21 day
Mus musculus [35] = assay: Anti-myocardial remodeling function in isoproterenol-induced C57BL/6 mouse model assessed as increase in shortening fraction at 20 mg/kg by one-time gavage for 21 days; type: functional; conditions: time 21 day
Mus musculus [36] = assay: Anti-myocardial remodeling function in isoproterenol-induced C57BL/6 mouse model assessed as decrease in heart weight to body weight ratio at 20 mg/kg by one-time gavage for 21 days; type: functional; conditions: time 21 day
Mus musculus [37] = assay: Anti-myocardial remodeling function in isoproterenol-induced C57BL/6 mouse model assessed as decrease in heart weight to […] ratio at 20 mg/kg by one-time gavage for 21 days; type: functional; conditions: time 21 day
Mus musculus [38] = assay: Anti-myocardial remodeling function in isoproterenol-induced C57BL/6 mouse model assessed as increase in ejection fraction at 50 mg/kg by one-time gavage for 21 days; type: functional; conditions: time 21 day
Mus musculus [39] = assay: Anti-myocardial remodeling function in isoproterenol-induced C57BL/6 mouse model assessed as increase in shortening fraction at 50 mg/kg by one-time gavage for 21 days; type: functional; conditions: time 21 day
Mus musculus [40] = assay: Anti-myocardial remodeling function in isoproterenol-induced C57BL/6 mouse model assessed as decrease in heart weight to body weight ratio at 50 mg/kg by one-time gavage for 21 days; type: functional; conditions: time 21 day
Mus musculus [41] = assay: Anti-myocardial remodeling function in isoproterenol-induced C57BL/6 mouse model assessed as decrease in heart weight to […] ratio at 50 mg/kg by one-time gavage for 21 days; type: functional; conditions: time 21 day
Mus musculus [42] = assay: Anti-myocardial remodeling function in isoproterenol-induced C57BL/6 mouse heart injury model assessed as reversal of pathological damage at 20 to 50 mg/kg by one-time gavage for 21 days by Masson staining and Sirius Red staining based analysis; type: functional, organism-based; conditions: dose 20-50 mg/kg, time 21.0 day
Mus musculus [43] = assay: Anti-myocardial remodeling function in isoproterenol-induced C57BL/6 mouse model assessed as decrease in cardiac hypertrophy ANP protein at 20 mg/kg by one-time gavage for 21 days relative to control; type: functional; design: scale not given: the % may be the effect or the level left; conditions: time 21 day
Mus musculus [44] = assay: Anti-myocardial remodeling function in isoproterenol-induced C57BL/6 mouse model assessed as decrease in cardiac hypertrophy BNP protein at 20 mg/kg by one-time gavage for 21 days relative to control; type: functional; design: scale not given: the % may be the effect or the level left; conditions: time 21 day
Mus musculus [45] = assay: Anti-myocardial remodeling function in isoproterenol-induced C57BL/6 mouse model assessed as decrease in cardiac hypertrophy ANP protein at 50 mg/kg by one-time gavage for 21 days relative to control; type: functional; design: scale not given: the % may be the effect or the level left; conditions: time 21 day
Mus musculus [46] = assay: Anti-myocardial remodeling function in isoproterenol-induced C57BL/6 mouse model assessed as decrease in cardiac hypertrophy BNP protein at 50 mg/kg by one-time gavage for 21 days relative to control; type: functional; design: scale not given: the % may be the effect or the level left; conditions: time 21 day

T1 sequence (Q9UGL1 whole entry): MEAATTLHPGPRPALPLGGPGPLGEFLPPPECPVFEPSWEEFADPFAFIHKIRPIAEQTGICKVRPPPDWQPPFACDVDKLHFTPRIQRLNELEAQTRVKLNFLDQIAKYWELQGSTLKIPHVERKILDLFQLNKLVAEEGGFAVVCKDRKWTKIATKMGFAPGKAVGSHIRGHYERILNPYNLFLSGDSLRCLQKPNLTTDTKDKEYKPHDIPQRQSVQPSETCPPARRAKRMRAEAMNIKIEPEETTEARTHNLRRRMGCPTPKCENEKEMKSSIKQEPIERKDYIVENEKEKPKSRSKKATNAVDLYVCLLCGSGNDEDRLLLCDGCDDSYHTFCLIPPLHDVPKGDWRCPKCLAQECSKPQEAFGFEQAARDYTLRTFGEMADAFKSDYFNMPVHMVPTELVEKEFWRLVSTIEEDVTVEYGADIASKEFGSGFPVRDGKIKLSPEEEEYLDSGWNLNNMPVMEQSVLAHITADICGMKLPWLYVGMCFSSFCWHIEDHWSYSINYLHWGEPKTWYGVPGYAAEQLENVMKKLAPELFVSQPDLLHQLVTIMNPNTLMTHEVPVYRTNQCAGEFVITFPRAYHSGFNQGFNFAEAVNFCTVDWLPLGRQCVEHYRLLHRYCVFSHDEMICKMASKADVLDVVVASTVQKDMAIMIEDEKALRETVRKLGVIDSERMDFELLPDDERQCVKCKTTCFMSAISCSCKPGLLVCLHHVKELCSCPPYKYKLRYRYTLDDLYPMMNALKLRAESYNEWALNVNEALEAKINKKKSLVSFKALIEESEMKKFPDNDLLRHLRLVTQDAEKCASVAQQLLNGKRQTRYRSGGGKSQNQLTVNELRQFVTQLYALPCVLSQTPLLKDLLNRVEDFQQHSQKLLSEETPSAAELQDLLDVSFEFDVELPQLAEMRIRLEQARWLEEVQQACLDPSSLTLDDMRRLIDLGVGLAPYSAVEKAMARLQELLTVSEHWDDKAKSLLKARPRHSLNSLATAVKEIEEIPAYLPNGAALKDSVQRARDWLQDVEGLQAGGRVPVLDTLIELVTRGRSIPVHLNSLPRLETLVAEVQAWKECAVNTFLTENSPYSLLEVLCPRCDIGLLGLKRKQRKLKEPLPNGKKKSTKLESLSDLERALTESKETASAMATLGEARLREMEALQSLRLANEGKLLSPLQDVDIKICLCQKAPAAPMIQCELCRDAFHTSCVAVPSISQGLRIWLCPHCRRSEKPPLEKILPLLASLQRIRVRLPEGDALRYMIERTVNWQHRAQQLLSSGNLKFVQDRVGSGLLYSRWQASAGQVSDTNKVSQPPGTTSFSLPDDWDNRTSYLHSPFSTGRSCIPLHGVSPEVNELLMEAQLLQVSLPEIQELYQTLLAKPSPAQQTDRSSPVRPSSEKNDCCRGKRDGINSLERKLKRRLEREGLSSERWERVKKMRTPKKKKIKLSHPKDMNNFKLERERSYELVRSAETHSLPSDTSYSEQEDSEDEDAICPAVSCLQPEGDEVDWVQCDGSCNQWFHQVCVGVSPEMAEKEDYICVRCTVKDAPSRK
Chain of Lysine-specific demethylase 5A (P29375 whole entry): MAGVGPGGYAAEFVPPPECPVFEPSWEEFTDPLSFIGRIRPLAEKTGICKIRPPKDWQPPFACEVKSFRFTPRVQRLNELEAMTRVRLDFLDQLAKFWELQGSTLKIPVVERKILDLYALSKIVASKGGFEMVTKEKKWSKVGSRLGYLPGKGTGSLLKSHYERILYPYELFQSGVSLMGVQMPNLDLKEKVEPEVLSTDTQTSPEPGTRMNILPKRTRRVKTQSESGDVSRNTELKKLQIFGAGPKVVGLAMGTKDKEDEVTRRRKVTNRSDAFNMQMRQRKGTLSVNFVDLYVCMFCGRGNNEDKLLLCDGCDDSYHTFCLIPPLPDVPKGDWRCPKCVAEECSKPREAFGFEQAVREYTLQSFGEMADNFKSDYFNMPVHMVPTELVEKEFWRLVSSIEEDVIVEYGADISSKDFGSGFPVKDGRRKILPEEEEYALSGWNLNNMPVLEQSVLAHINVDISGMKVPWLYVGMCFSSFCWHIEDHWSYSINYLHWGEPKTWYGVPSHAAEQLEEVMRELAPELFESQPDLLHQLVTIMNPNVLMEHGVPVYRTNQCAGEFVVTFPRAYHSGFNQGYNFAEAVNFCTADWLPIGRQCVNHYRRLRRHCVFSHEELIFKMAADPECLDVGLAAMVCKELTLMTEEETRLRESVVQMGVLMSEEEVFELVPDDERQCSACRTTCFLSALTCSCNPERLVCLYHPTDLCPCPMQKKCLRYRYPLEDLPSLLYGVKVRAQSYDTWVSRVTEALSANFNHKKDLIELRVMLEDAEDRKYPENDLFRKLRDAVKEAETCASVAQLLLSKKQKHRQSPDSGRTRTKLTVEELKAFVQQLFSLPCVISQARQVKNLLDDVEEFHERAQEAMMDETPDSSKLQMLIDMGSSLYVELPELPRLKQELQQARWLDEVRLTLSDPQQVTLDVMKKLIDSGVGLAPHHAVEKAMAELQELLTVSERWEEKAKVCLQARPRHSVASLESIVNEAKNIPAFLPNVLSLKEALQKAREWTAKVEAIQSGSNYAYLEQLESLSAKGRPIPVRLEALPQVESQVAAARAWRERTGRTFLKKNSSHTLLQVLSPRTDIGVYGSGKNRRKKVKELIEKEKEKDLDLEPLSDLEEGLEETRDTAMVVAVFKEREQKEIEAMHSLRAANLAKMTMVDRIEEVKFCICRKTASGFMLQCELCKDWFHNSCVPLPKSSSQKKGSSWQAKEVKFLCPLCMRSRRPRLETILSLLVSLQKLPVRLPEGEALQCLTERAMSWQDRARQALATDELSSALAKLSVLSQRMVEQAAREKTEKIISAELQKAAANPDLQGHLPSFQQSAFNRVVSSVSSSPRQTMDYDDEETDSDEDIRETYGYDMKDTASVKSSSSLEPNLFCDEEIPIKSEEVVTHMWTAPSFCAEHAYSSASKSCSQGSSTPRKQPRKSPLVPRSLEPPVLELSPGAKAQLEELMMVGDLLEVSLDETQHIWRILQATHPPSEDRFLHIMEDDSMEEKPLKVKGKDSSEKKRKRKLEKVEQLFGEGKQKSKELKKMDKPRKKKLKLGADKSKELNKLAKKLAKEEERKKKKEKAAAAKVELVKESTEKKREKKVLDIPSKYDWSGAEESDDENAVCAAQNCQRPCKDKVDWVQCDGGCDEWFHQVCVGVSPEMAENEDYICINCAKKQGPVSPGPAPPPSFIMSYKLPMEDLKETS
Chain of Lysine-specific demethylase 5C (P41229 whole entry): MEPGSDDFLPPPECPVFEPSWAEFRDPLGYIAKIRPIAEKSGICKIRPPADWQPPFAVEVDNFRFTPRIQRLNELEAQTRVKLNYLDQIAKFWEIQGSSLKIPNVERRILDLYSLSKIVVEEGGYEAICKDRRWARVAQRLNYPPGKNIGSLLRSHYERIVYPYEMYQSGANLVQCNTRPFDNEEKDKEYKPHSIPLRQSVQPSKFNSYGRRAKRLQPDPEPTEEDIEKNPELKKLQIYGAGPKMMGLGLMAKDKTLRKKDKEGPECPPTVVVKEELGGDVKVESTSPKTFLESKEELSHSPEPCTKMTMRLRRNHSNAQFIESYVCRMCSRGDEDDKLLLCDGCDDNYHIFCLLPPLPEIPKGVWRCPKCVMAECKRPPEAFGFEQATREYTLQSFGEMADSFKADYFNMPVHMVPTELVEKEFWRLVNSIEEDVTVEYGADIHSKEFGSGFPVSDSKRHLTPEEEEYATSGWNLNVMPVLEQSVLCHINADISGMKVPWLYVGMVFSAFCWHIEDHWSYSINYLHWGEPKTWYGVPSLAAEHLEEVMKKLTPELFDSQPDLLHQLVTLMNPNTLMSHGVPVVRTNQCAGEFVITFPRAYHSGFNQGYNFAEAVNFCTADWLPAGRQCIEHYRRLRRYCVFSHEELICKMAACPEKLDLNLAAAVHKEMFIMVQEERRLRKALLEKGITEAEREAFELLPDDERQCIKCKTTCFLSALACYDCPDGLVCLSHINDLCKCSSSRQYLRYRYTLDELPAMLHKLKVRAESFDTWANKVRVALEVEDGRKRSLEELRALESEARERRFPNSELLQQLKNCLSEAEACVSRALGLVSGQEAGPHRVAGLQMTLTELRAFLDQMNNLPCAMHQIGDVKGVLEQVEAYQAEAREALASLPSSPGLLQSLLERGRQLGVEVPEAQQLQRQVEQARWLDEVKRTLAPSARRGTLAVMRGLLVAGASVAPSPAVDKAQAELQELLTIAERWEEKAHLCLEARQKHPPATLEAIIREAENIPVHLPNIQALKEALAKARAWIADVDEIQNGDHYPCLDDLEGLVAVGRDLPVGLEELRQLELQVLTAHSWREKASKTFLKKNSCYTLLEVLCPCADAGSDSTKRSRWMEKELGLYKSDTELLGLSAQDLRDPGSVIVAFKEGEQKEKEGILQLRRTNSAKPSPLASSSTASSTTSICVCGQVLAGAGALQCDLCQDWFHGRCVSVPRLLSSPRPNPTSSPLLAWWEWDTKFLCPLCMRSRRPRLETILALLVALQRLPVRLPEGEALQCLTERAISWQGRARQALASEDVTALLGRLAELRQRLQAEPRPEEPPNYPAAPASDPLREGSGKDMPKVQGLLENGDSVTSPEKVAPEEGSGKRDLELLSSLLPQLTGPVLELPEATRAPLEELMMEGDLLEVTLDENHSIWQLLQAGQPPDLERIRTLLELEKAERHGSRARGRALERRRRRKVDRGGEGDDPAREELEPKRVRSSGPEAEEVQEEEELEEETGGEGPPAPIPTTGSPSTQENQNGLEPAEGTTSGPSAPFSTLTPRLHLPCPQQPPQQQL

**Q.** For CC(C)c1cc(C(=O)N2CC[C@@H](NC(=O)NC3CC3)C2)n[nH]1, which Activity [1] is on record?
**A.** The Activity was “Active”.

**Q.** What about the inhibition [2] of the same compound?
**A.** Its inhibition is 100%.

**Q.** What about the IC50 [3] of the same compound?
**A.** Its IC50 is 44 nM.

**Q.** And the IC50 [4]?
**A.** The IC50 was 79 nM.

**Q.** And the IC50 [5]?
**A.** The IC50 was 353 nM.

**Q.** And the viability at 48 h, 10 µM [6]?
**A.** The viability at 48 h, 10 µM was 90%.

**Q.** And the viability at 48 h, 10 µM [7]?
**A.** Its viability at 48 h, 10 µM is 90%.

**Q.** What about the Activity [8] of the same compound?
**A.** The Activity was “Active”.

**Q.** What about the Activity [9] of the same compound?
**A.** Its Activity is “Active”.

**Q.** What about the Activity [10] of the same compound?
**A.** Its Activity is “Active”.

**Q.** And the Activity [11]?
**A.** Its Activity is “Active”.

**Q.** And the Activity [12]?
**A.** Its Activity is “Active”.

**Q.** And the Ratio [13]?
**A.** Its Ratio is 0.77.

**Q.** And the Ratio [14]?
**A.** Its Ratio is 0.6.

**Q.** What about the clearance [15] of the same compound?
**A.** The clearance was 70 mL/min/kg.

**Q.** And the CL/F [16]?
**A.** The CL/F was 165 mL/min/kg.

**Q.** And the Vdss [17]?
**A.** The Vdss was 33.4 L/kg.

**Q.** What about the Vd [18] of the same compound?
**A.** Its Vd is 2.7 L/kg.

**Q.** And the half-life [19]?
**A.** Its half-life is 144 min.

**Q.** And the half-life [20]?
**A.** The half-life was 24 min.

**Q.** What about the Tmax [21] of the same compound?
**A.** Its Tmax is 24 min.

**Q.** And the Cmax [22]?
**A.** The Cmax was 710 ng/mL.

**Q.** What about the Cmax [23] of the same compound?
**A.** The Cmax was 1230 ng/mL.

**Q.** What about the AUC at 24 h [24] of the same compound?
**A.** The AUC at 24 h was 1040 ng·h/mL.

**Q.** And the AUC at 24 h [25]?
**A.** Its AUC at 24 h is 480 ng·h/mL.

**Q.** What about the bioavailability [26] of the same compound?
**A.** Its bioavailability is 42.4%.

**Q.** And the Activity [27]?
**A.** Its Activity is “Non-Toxic”.

**Q.** What about the Activity [28] of the same compound?
**A.** The Activity was “Non-Toxic”.

**Q.** What about the Activity [29] of the same compound?
**A.** Its Activity is “Non-Toxic”.

**Q.** And the Activity [30]?
**A.** Its Activity is “Non-Toxic”.

**Q.** And the Activity [31]?
**A.** The Activity was “Non-Toxic”.

**Q.** What about the Activity [32] of the same compound?
**A.** The Activity was “Non-Toxic”.

**Q.** What about the Activity [33] of the same compound?
**A.** The Activity was “Non-Toxic”.

**Q.** And the Activity (Mus musculus [34])?
**A.** Its Activity is 77%.

**Q.** And the Activity (Mus musculus [35])?
**A.** The Activity was 44%.

**Q.** And the Ratio (Mus musculus [36])?
**A.** Its Ratio is 0.93.

**Q.** And the Ratio (Mus musculus [37])?
**A.** The Ratio was 0.93.

**Q.** And the Activity (Mus musculus [38])?
**A.** Its Activity is 83%.

**Q.** What about the Activity (Mus musculus [39]) of the same compound?
**A.** The Activity was 50%.

**Q.** What about the Ratio (Mus musculus [40]) of the same compound?
**A.** The Ratio was 0.89.

**Q.** What about the Ratio (Mus musculus [41]) of the same compound?
**A.** The Ratio was 0.89.

**Q.** What about the Activity (Mus musculus [42]) of the same compound?
**A.** Its Activity is “Active”.

**Q.** What about the Activity (Mus musculus [43]) of the same compound?
**A.** The Activity was 85%.

**Q.** What about the Activity (Mus musculus [44]) of the same compound?
**A.** Its Activity is 75%.

**Q.** What about the Activity (Mus musculus [45]) of the same compound?
**A.** The Activity was 71%.

**Q.** And the Activity (Mus musculus [46])?
**A.** Its Activity is 54%.
